Experimental data as given in PMC3131604, “The Inhibitory Effect of Non-Steroidal Anti-Inflammatory Drugs (NSAIDs) on the Monophenolase and Diphenolase Activities of Mushroom Tyrosinase” (International Journal of Molecular Sciences, 2011).
Where two headings read alike, the source gives them in different places.

Assays:
[1] = target: T1, mushroom tyrosinase (Agaricus bisporus, UniProt C7FF04); experiment: monophenolase activity assay of mushroom tyrosinase (L-tyrosine as substrate); format: biochemical; conditions: for effect on lag time of monophenolase activity: 0.25-1.0 mM inhibitor; for Inhibition type, monophenolase activity: Lineweaver-Burk plots; for activity at 250 µM: at 0.25 mM; for activity at 250 µM / activity at 500 µM / activity at 750 µM / activity at 1000 µM: read-out: monophenolase activity (steady-state rate) in presence of inhibitor; for activity at 500 µM: at 0.5 mM; for activity at 750 µM: at 0.75 mM; for activity at 1000 µM: at 1.0 mM; for KIS (inhibitor binding with the enzyme-substrate complex), monophenolase: secondary plot of Lineweaver-Burk slopes
T1 sequence (C7FF04 1-392): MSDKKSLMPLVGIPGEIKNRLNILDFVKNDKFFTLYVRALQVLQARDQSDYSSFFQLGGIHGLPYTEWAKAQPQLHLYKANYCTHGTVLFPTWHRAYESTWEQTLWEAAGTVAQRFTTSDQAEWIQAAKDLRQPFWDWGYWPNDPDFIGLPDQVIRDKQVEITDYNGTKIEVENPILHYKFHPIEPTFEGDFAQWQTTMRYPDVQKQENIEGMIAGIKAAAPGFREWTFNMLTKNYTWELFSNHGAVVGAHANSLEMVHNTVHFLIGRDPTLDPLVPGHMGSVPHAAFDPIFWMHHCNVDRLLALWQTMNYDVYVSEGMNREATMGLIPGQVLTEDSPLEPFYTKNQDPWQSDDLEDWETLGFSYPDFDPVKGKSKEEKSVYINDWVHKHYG
T1 sequence (G1K3P4 1-150 partner): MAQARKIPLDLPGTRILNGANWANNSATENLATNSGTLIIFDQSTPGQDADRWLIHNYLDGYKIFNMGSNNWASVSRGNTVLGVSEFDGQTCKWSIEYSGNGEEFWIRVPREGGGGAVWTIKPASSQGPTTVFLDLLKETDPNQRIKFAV
Protocol: The monophenolase activity assay was performed with modification as reported by Chen et al.. In this assay, L-tyrosine was used as substrate in the monophenolase activity assay. First, 300 μL of 2.5 mM L-tyrosine, 25 μL of DMSO with or without a sample chemical, and 300 μL of 0.1 M phosphate buffer (pH 6.8) were mixed. The mixture was preincubated at 37 °C for 10 min before 125 μL of 1000 units/mL mushroom tyrosinase in aqueous solution added, and the reaction was performed at 37 °C. Enzyme activity was monitored at 475 nm by a UV spectrophotometer (Shimadzu, UV-1700). The lag time was determined by extrapolation of the linear portion of the dopachrome accumulation curve to the abscissa axis.
(§1) The inhibition type of NSAIDs on the monophenolase and diphenolase activity was determined by the Lineweaver-Burk plots and the inhibition constants were determined from secondary plots of the apparent Km/Vmax versus the concentration of the inhibitor.

[2] = target: T1, mushroom tyrosinase; experiment: diphenolase activity assay of mushroom tyrosinase (L-DOPA as substrate); format: biochemical; conditions: for KIS, diphenolase: Lineweaver-Burk / secondary plots; for Inhibition type, diphenolase activity: Lineweaver-Burk plots; for activity at 50 µM: at 0.05 mM; for activity at 50 µM / activity at 100 µM / activity at 200 µM / activity at 500 µM / activity at 1000 µM: read-out: diphenolase activity in presence of inhibitor; for activity at 100 µM: at 0.1 mM; for activity at 500 µM: at 0.5 mM; for activity at 1000 µM: at 1.0 mM
Protocol: The diphenolase activity assay was performed as previously described. First, 300 μL of 2.5 mM 3,4-dihydroxyphenylalanine (L-DOPA) solution, 50 μL of DMSO with or without a sample chemical, and 1.1 mL of 0.1 M phosphate buffer (pH 6.8) were mixed. The mixture was preincubated at 25 °C for 10 min before 50 μL of 1000 units/mL mushroom tyrosinase in aqueous solution was added, and the reaction was monitored at 475 nm. A control reaction was conducted in DMSO alone. The percentage of activity of tyrosinase was calculated as follows: 100 − [(A − B)/A × 100], where A represents the difference in the absorbance of the control sample between an incubation time of 0.5 and 1.0 min, and B represents the difference in the absorbance of the test sample over the same incubation period.
as §1

[3] = system: B16F1 melanoma cells; conditions: cited from earlier work

SMILES: Cc1cccc(Nc2ccccc2C(=O)O)c1C [Mefenamic acid, mefenamic acid]
- inhibition at 1000 µM ([1]; at 1 mM): 9%
- inhibition of diphenolase activity (in words) ([2]; at 0.2 mM): slightly inhibited
- effect on melanogenesis [3]: inhibit melanogenesis

SMILES: CC(C)Cc1ccc(C(C)C(=O)O)cc1 (stereo not shown) [Ibuprofen, ibuprofen]
- inhibition of diphenolase activity (in words) ([2]; L-DOPA substrate): did not inhibit
- inhibition at 1000 µM ([2]; at 1 mM): 8%

SMILES: O=C(O)c1cc(-c2ccc(F)cc2F)ccc1O [Diflunisal, diflunisal]
- effect on lag time of monophenolase activity [1]: extended
- Inhibition type, monophenolase activity [1]: Non-competitive
- activity at 250 µM [1]: ~45%
- activity at 500 µM [1]: ~34%
- activity at 750 µM [1]: ~27%
- activity at 1000 µM [1]: ~20%
- KIS (inhibitor binding with the enzyme-substrate complex), monophenolase [1]: 0.11 mM
- KIS, diphenolase [2]: 0.19 mM
- Inhibition type, diphenolase activity [2]: Non-competitive
- activity at 50 µM [2]: ~77%
- activity at 100 µM [2]: ~63%
- activity at 200 µM ([2]; at 0.2 mM): ~49%
- activity at 500 µM [2]: ~32%
- activity at 1000 µM [2]: ~20%

SMILES: O=C(O)Cc1ccccc1Nc1c(Cl)cccc1Cl [Diclofenac, diclofenac]
- inhibition at 4000 µM ([1]; at 4 mM): 25%
- effect on melanogenesis [3]: inhibit melanogenesis

SMILES: CC(=O)Oc1ccccc1C(=O)O [Acetylsalicylic acid, acetylsalicylic acid]
- inhibition of diphenolase activity (in words) ([2]; L-DOPA substrate): did not inhibit
- inhibition at 4000 µM ([2]; at 4 mM): -6%
- effect on melanogenesis ([3]; B16F1 melanoma cells ref 23): inhibits melanogenesis
- effect on tyrosinase protein expression ([3]; B16F1 melanoma cells ref 23): down-regulates

SMILES: COc1ccc2c(c1)c(CC(=O)O)c(C)n2C(=O)c1ccc(Cl)cc1 [Indomethacin, indomethacin]
- effect on lag time of monophenolase activity [1]: did not change
- Inhibition type, monophenolase activity [1]: Non-competitive
- activity at 250 µM [1]: ~84%
- activity at 500 µM [1]: ~72%
- activity at 750 µM [1]: ~66%
- activity at 1000 µM [1]: ~60%
- IC50 of monophenolase activity relative to diphenolase activity ([1]; ratio of IC50 values): about three times larger
- KIS (inhibitor binding with the enzyme-substrate complex), monophenolase [1]: 0.75 mM
- KIS, diphenolase [2]: 2.42 mM
- Inhibition type, diphenolase activity [2]: Non-competitive
- activity at 50 µM [2]: ~89%
- activity at 100 µM [2]: ~82%
- activity at 200 µM ([2]; at 0.2 mM): ~70%
- activity at 500 µM [2]: ~50%
- activity at 1000 µM [2]: ~32%
